{"source": "ChEMBL document CHEMBL1201862", "about": "“PubChem BioAssay data set” (2004)", "key": {"[1]": {"assay": "SAR analysis of small molecule inhibitors of Apaf-1 using a LZ-Caspase-9/Caspase-3 Fluorescent Selectivity assay - Set 2.", "assay_type": "functional", "conditions": "read-out: IC50_Mean"}, "[2]": {"molecular_target": "T1, Apoptotic protease-activating factor 1 (Homo sapiens, UniProt O14727)", "T1 sequence (O14727 whole entry)": "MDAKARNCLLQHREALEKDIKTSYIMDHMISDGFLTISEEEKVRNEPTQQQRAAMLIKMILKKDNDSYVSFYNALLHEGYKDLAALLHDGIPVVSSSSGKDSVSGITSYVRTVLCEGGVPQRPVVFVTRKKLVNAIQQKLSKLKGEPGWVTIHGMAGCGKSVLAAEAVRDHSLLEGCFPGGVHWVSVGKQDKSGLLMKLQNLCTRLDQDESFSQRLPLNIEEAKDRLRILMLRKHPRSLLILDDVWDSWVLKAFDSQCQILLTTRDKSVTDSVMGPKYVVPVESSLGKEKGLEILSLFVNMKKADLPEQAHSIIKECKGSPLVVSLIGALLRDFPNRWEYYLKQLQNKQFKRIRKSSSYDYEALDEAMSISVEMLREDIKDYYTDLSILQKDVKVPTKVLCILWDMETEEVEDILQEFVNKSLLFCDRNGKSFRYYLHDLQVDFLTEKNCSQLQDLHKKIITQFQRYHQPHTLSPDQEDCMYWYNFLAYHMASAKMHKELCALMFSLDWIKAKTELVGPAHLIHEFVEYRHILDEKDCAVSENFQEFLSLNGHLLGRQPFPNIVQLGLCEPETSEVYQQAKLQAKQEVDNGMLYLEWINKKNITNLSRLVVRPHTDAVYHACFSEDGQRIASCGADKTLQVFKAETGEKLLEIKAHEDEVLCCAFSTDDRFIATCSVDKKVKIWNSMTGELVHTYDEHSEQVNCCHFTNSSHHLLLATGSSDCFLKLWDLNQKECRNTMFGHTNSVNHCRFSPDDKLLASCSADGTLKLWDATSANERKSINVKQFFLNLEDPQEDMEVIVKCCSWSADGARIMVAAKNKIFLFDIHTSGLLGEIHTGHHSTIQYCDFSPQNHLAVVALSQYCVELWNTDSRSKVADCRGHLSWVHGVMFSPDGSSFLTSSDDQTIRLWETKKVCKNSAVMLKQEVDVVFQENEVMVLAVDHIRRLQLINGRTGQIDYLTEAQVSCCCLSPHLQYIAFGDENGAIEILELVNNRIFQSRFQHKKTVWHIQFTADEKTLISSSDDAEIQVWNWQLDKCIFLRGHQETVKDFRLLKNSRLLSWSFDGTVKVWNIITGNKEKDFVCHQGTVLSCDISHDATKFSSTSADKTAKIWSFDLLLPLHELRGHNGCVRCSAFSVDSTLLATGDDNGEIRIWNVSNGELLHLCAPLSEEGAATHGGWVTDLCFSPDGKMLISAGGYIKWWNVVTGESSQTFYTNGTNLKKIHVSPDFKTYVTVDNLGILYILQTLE", "assay": "SAR analysis of small molecule Inhibitors of Apaf-1 in a Fluorescent assay - set 2.", "assay_type": "functional", "conditions": "read-out: IC50_Mean"}, "[3]": {"molecular_target": "DNA dC->dU-editing enzyme APOBEC-3A (Homo sapiens, UniProt P31941)", "sequence (P31941 whole entry)": "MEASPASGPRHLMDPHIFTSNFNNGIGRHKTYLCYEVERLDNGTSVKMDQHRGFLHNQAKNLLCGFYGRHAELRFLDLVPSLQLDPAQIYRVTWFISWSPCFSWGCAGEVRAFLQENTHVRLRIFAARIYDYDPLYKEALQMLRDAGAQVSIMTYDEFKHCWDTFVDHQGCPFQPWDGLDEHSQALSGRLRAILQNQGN", "assay": "SAR analysis of small molecule inhibitors of APOBEC3A DNA Deaminase via a fluorescence-based single-stranded DNA deaminase assay.", "assay_type": "functional", "conditions": "read-out: IC50_Mean"}, "[4]": {"molecular_target": "DNA dC->dU-editing enzyme APOBEC-3G (Homo sapiens, UniProt Q9HC16)", "sequence (Q9HC16 whole entry)": "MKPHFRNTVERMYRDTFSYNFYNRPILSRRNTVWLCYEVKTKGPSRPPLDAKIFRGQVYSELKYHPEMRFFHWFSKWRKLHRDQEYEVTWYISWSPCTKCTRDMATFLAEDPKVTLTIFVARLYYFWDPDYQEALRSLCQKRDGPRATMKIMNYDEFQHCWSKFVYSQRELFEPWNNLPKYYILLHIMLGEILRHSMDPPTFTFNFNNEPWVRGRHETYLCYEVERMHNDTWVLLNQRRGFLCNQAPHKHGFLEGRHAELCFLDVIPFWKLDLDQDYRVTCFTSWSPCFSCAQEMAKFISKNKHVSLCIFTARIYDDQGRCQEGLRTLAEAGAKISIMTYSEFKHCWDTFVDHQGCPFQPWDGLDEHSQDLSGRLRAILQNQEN", "assay": "APOBEC3G deaminase inhibitors, SAR follow-up, biochemical, fluorescence, single-stranded DNA substrate (AID 602136)", "assay_type": "functional", "conditions": "read-out: IC50_Mean"}, "[5]": {"molecular_target": "Serine/threonine-protein kinase Chk1 (Homo sapiens, UniProt O14757)", "sequence (O14757 whole entry)": "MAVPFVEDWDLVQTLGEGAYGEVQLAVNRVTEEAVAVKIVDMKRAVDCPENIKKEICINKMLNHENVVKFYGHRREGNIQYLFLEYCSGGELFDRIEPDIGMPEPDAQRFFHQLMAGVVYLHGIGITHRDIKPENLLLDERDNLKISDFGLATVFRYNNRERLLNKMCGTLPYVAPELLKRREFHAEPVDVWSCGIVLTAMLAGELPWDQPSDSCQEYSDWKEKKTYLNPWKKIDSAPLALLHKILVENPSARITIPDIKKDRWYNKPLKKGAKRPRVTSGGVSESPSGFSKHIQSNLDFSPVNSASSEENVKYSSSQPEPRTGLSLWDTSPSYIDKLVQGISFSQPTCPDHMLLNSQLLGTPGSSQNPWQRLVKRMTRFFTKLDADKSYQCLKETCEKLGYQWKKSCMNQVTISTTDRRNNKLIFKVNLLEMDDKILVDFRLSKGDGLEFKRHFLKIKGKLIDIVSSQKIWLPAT", "assay_type": "functional"}, "[6]": {"molecular_target": "Dual specificity mitogen-activated protein kinase kinase 1 (Homo sapiens, UniProt Q02750)", "sequence (Q02750 whole entry)": "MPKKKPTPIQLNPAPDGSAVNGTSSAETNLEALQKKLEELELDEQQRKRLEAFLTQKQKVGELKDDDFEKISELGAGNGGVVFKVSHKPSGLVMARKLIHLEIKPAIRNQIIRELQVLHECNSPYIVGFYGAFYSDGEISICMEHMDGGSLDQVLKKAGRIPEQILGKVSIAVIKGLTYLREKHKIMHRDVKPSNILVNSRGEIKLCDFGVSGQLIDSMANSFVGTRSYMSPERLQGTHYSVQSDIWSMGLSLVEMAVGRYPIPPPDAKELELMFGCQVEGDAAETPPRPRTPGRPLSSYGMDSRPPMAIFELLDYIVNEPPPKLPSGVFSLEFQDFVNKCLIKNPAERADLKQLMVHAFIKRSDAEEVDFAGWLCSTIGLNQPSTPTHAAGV", "assay": "Navigating the Kinome. Panel member name: MAP2K1", "assay_type": "functional"}, "Insulin-degrading enzyme [7]": {"molecular_target": "T2, Insulin-degrading enzyme (Homo sapiens, UniProt P14735)", "T2 sequence (P14735 whole entry)": "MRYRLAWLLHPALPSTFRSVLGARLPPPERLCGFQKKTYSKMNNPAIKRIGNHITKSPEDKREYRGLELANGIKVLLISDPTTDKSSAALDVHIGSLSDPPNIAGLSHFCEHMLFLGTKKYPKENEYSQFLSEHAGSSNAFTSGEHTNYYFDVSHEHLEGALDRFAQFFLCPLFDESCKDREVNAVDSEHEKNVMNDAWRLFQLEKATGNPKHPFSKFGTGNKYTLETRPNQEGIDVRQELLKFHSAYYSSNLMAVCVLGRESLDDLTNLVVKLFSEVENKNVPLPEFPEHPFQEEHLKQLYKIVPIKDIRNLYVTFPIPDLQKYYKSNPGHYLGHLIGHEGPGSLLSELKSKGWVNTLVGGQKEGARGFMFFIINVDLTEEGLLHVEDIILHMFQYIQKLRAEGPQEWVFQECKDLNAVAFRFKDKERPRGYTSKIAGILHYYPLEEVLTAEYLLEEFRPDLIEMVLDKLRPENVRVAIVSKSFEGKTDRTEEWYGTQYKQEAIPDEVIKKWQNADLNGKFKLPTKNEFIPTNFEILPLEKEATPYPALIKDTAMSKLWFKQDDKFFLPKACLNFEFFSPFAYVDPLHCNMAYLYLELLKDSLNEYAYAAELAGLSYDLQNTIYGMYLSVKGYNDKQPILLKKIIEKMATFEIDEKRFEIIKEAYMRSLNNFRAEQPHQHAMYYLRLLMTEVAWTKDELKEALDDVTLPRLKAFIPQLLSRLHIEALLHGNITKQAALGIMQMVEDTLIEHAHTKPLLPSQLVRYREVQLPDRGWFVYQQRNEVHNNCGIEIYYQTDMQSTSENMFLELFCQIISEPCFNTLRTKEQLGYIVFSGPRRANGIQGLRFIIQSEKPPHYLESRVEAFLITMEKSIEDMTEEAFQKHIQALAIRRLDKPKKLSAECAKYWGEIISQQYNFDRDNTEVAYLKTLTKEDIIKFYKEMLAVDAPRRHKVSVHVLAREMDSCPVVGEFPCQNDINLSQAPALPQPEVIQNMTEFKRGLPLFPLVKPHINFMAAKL", "assay": "activators of recombinant IDE enzyme, dose response, counter-screen for IDE activator project, biochemical, fluorescence polarization (AID 588681)"}, "HEK293 [8]": {"tested_on": "HEK293", "assay": "HEK cell cytotoxicity by LDH release, dose response, cytotoxicity control for IDE activator project, fluorescence, HEK cells (AID 588440);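 also: cytotoxicity by LDH release measuring loss of membrane integrity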", "assay_type": "functional, cell-based", "conditions": "Homo sapiens"}, "Insulin-degrading enzyme [9]": {"molecular_target": "T2, Insulin-degrading enzyme", "assay": "activators of endogenous IDE in HEK cells, dose response, cell-based, fluorescence polarization (AID 588439)", "assay_type": "functional"}, "HEK293 [10]": {"tested_on": "HEK293", "assay": "optical interference in Abeta FP readout, dose response, artefact control for IDE activator project, biochemical, fluorescence polarization (AID 588442)", "assay_type": "functional, cell-based", "conditions": "Homo sapiens"}, "[11]": {"assay": "Vero cell cytotoxicity, cytotoxicity control for M. tuberculosis inhibitor project, purified and synthesized samples, set 3 (AID 504684)", "assay_type": "functional", "conditions": "[…]"}, "[12]": {"assay": "THP-1 cell cytotoxicity, dose response, cytotoxicity control, set 3 (AID 504852)", "assay_type": "functional", "conditions": "Mycobacterium tuberculosis"}}, "note": "The source made the active and inactive calls.", "data": [{"compound": "Cc1cc(C)c2c(c1)N(Cc1ccc(Cl)c(Cl)c1)C(=O)C2=O", "values": [{"measurement": "IC50", "setting": "[1]", "result": "20.1 µM (active)"}, {"measurement": "IC50", "setting": "[2]", "result": "42 µM (active)"}]}, {"compound": "CN1CC2=C(N=C1NCCCO)c1ccccc1CC21CCCCC1", "values": [{"measurement": "IC50", "setting": "[3]", "result": "> 99 µM (inactive)"}, {"measurement": "IC50", "setting": "[4]", "result": "> 99 µM (inactive)"}]}, {"compound": "CN(C)Cc1ccc2c(c1)NC(=O)C1CCCN21", "note": "(configuration not stated)", "values": [{"measurement": "Ki", "setting": "[5]", "result": "1.58 µM (active)"}, {"measurement": "Ki", "setting": "[6]", "result": "3.16 µM (active)"}]}, {"compound": "O=C(O)c1ccccc1NC(=O)C1CCN(S(=O)(=O)c2cccc3nsnc23)CC1", "values": [{"measurement": "EC50", "setting": "Insulin-degrading enzyme [7]", "result": "> 54.7 µM (inactive)"}, {"measurement": "IC50", "setting": "HEK293 [8]", "result": "> 89.2 µM (inactive)"}, {"measurement": "EC50", "setting": "Insulin-degrading enzyme [9]", "result": "> 18.2 µM (inactive)"}, {"measurement": "EC50", "setting": "HEK293 [10]", "result": "2.44 µM (active)"}]}, {"compound": "COC(=O)c1ccc(CNc2c(N3CCCC3)c(=O)c2=O)cc1", "values": [{"measurement": "CC50", "setting": "[11]", "result": "> 100 µM (active)"}, {"measurement": "CC50", "setting": "[12]", "result": "> 100 µM (active)"}]}]}
